Test results from US20090131470A1, “PYRAZOLE-SUBSTITUTED BENZIMIDAZOLE DERIVATIVES FOR USE IN THE TREATMENT OF CANCER AND AUTOIMMUNE DISORDERS” (priority 2005, published 2009).

Key:
Assay type in all cases: biochemical
PDK1 = biological target: T1, PDK1 (Homo sapiens, UniProt O15530); experiment: PDK1 kinase assay (33P peptide phosphorylation); settings: 0.01 mM ATP, 60 min at 30° C.; read-out: PDK-1 IC50
T1 sequence (O15530 1-556): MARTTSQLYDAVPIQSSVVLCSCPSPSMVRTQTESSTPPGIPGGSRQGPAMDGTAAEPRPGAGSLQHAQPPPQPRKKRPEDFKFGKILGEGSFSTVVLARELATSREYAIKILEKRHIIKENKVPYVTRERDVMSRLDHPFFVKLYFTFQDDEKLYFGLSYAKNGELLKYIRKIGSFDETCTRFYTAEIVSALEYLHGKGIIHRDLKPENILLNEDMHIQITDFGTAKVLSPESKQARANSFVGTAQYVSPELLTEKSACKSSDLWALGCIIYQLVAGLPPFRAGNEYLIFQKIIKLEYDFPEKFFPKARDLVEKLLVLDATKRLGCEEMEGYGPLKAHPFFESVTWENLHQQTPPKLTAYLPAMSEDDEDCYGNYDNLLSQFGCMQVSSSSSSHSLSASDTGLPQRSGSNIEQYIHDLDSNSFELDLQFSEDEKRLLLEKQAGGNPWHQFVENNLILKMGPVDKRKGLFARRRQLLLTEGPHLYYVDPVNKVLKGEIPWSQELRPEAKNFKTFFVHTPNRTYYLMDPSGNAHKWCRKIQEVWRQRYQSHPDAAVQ

Akt1 = biological target: T2, Akt1 (Homo sapiens, UniProt P31749); experiment: Akt1 kinase assay (Histone H1 substrate); settings: 200 μM ATP, read-out: AKT-1 IC50
T2 construct: purchased Upstate

PKA = biological target: T3, PKA (Homo sapiens, UniProt P17612); experiment: PKA kinase assay (Kemptide substrate); settings: 100 μM ATP
T3 construct: purchased Upstate

EGFR = EGFR (Homo sapiens, UniProt P00533); experiment: Kinase selectivity screening (example 14)
Flt1 = Flt1 (Homo sapiens, UniProt P17948); experiment: Kinase selectivity screening (example 14)
IGF-IR = IGF-IR (Homo sapiens, UniProt P08069); experiment: Kinase selectivity screening (example 14)
ITK = biological target: T4, ITK (Homo sapiens, UniProt Q08881); experiment: Kinase selectivity screening (example 14)
T4 sequence (Q08881 1-620): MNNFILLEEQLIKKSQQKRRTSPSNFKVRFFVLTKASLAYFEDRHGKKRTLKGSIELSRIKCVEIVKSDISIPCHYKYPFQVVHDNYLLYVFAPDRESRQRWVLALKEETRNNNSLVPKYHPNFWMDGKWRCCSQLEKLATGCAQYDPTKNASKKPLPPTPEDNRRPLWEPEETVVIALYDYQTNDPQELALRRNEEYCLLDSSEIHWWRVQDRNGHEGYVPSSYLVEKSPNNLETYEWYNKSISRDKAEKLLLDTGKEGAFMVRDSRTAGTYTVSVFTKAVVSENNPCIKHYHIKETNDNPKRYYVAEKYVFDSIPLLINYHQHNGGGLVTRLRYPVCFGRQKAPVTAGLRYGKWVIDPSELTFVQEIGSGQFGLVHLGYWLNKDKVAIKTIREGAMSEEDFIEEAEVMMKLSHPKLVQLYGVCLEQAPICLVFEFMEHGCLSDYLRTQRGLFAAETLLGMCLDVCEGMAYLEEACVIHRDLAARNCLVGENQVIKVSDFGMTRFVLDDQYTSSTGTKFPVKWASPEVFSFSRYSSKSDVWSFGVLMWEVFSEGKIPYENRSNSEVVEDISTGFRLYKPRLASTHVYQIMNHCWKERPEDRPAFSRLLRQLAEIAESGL

PDGFRa = PDGFRa (Homo sapiens, UniProt P16234); experiment: Kinase selectivity screening (example 14)
Tie2 = Tie2 (Homo sapiens, UniProt Q02763); experiment: Kinase selectivity screening (example 14)
Tie2, sequence (Q02763 23-1124, species assumed): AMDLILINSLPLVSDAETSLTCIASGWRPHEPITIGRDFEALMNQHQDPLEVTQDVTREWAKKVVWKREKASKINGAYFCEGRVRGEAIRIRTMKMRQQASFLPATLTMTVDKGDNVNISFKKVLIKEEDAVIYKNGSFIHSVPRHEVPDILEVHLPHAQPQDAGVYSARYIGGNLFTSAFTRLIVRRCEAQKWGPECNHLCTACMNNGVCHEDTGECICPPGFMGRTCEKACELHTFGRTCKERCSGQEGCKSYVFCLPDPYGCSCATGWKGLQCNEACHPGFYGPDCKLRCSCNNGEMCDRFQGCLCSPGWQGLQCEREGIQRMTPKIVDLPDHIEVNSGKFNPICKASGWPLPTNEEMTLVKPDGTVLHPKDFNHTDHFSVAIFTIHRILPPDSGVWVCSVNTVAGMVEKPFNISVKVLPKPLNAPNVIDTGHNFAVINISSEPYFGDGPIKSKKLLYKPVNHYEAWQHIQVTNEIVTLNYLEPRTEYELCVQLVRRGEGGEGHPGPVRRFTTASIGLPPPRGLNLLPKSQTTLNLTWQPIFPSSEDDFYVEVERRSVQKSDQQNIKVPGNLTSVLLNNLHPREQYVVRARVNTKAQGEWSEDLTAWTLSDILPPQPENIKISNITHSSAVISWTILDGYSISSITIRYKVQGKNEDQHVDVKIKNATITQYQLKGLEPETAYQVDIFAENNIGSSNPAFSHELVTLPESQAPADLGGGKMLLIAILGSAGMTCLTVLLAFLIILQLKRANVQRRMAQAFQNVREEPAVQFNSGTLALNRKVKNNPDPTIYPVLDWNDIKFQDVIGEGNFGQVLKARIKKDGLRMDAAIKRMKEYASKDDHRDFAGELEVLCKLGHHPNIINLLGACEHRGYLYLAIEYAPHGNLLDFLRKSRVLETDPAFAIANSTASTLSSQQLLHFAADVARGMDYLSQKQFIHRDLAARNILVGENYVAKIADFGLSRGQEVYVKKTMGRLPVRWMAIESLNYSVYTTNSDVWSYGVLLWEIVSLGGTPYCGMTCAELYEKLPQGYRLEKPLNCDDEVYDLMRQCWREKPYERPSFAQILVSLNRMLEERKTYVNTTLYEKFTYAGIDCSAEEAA

T2 sequence (P31749 whole entry, species assumed): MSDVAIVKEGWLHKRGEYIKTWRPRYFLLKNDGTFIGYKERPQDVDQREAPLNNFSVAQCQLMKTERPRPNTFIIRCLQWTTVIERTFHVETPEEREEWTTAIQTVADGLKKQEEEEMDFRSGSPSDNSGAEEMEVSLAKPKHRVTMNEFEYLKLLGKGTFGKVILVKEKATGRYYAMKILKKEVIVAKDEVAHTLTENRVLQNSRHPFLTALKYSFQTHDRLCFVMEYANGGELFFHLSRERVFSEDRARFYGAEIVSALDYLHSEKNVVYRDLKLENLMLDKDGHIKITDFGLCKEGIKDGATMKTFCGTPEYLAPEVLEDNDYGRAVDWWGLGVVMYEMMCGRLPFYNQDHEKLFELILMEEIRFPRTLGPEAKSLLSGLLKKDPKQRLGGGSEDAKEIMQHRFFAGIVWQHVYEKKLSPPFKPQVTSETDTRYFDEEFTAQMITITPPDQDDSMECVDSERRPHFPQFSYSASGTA
PDGFRa, sequence (P16234 24-1089): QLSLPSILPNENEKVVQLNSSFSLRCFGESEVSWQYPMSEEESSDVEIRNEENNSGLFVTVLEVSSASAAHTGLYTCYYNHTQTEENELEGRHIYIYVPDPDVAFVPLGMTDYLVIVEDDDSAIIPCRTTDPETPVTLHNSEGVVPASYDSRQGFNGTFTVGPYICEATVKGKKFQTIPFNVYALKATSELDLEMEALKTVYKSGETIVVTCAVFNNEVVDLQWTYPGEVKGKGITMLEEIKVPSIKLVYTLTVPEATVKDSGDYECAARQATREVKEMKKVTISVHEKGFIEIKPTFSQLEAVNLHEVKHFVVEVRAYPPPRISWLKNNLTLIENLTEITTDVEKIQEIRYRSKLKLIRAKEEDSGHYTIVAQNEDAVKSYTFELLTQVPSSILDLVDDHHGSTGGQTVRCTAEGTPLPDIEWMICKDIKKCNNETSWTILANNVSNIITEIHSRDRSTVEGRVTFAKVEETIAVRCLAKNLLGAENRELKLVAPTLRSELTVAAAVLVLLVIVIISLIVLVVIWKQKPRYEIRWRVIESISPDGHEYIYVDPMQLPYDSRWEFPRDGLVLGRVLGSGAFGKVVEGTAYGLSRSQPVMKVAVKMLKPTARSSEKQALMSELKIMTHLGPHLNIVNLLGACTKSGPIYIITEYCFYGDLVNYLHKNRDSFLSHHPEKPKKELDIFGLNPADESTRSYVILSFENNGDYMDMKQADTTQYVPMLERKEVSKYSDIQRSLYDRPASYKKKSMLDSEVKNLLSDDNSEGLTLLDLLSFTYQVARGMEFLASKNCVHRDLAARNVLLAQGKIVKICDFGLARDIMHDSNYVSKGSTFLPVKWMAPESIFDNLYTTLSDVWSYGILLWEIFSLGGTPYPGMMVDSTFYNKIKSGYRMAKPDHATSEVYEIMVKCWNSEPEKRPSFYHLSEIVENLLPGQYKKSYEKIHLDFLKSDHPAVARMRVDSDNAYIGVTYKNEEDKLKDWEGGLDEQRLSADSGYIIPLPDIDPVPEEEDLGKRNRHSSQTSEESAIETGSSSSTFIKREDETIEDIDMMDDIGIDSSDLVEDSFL
IGF-IR, sequence (P08069 31-1367): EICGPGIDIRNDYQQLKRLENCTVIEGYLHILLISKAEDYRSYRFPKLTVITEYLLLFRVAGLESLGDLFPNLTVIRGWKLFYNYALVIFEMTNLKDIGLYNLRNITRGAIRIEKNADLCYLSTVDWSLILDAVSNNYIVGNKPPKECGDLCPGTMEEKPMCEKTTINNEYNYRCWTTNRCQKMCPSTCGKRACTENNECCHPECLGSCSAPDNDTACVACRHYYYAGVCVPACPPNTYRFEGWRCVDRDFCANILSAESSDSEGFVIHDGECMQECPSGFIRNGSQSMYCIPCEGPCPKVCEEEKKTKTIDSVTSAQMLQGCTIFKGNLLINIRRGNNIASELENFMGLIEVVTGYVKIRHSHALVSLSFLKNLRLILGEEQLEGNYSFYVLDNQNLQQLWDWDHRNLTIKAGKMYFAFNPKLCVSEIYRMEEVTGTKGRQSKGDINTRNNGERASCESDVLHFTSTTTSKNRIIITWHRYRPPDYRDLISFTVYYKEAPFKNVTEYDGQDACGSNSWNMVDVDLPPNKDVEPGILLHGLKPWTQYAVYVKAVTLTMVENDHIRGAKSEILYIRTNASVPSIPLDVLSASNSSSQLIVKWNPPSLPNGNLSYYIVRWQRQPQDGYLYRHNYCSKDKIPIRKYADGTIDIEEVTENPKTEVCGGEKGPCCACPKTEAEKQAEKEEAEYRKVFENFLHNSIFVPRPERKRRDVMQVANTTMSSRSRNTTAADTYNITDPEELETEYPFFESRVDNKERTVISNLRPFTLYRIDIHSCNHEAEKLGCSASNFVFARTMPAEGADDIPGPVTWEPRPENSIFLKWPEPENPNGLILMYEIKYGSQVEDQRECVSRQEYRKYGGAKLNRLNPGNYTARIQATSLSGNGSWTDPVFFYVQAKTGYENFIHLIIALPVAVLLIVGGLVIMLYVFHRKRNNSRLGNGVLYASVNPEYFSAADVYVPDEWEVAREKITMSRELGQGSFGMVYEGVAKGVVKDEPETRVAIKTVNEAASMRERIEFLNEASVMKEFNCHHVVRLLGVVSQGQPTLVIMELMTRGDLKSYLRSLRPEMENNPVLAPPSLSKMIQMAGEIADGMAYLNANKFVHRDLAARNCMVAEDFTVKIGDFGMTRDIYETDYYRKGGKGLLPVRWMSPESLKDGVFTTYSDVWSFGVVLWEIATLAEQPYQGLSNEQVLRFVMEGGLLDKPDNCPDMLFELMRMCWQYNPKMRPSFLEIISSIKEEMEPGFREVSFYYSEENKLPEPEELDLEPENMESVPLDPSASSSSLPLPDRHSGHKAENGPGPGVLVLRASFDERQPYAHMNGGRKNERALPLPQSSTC

Molecule `Cc1[nH]nc(-c2nc3cc4cn[nH]c4cc3[nH]2)c1C(=O)NC1CCNCC1` [Example 14] has an IC50 (PDK1) of 0.01 µM, an IC50 (Akt1) of 26.8 µM and an IC50 (PKA) of 7.2 µM. For the same molecule, the “selectivity versus EGFR” value (EGFR) was > 20 fold, the “selectivity versus Flt1” value (Flt1) was > 20 fold and the “selectivity versus IGF-IR” value (IGF-IR) was > 20 fold. The “selectivity versus ITK” value (ITK) was > 20 fold, the “selectivity versus PDGFRa” value (PDGFRa) was > 20 fold and the “selectivity versus Tie2” value (Tie2) was > 20 fold.
